Experimental data from patent publication US9440957B2, “Compounds and compositions for modulating EGFR Activity” (Novartis AG, priority 2012, dated 2016).
Read-outs that look alike come from different tables or passages of the source.

What was measured:
HCC827 (Del E746-A750) = HCC827 (Del E746-A750) (Homo sapiens, UniProt P00533, DEL746-750); assay: EGFR target modulation in HCC827 cell line (phospho-EGFR Y1173 ELISA); assay type: cell-based
Method: EGFR Target Modulation in H1975, H3255 and HCC827 Cell Lines Tissue Culture. Cells were maintained in 10% FBS/RPMI supplemented with 100 μg/ml Penicillin/Streptomycin (Hyclone #SH30236.01). […] The cells were allowed to incubate overnight in a 37° C., 5% CO2 humidified tissue culture incubator. […] The serial diluted compounds were transferred to the plate containing cells by using a 50 nl Pin Head device (Perkin Elmer) and the cells were placed back in the incubator for 3 hours. Phospho-EGFR ([…]) Target Modulation Assay. The media was reduced to 20 ul using a Bio-Tek ELx 405 SelectTM plate washer. […] The plates were shaken at 4° C. for 20 minutes. An aliquot of 25 ul from each well was transferred to pEGFR(Y1173) ELISA plates for analysis. Phospho-EGFR ([…]) ELISA. Solid white high-binding ELISA plates (Greiner #781074) were coated with 5 ug/ml anti-EGFR capture antibody (R&D Systems #AF231) overnight in 50 mM carbonate/bicarbonate pH 9.5 buffer. Plates were blocked with 1% BSA (Sigma #A7030) in PBS for 1 hour at room temperature. Wash steps were carried out with a Bio-Tek ELx405 SelectTM using 4 cycles of 100 ul TBS-T (20 mM Tris, 137 mM NaCl, 0.05% Tween-20) per well. […] Lysis was allowed to occur for 20 minutes on ice. A 25 ul aliquot was added to each well of the blocked ELISA plate and incubated overnight at 4° C. with gentle shaking. […] After washing, 1:2,000 anti-rabbit-HRP (Cell Signaling #7074) in 0.2% BSA/TBS-T was added and incubated for 1 hour at room temperature. Chemiluminescent detection was carried out with SuperSignal ELISA Pico substrate (ThermoScientific #37069). Signal was read on EnVision plate reader using built-in UltraLUM setting. Data Analysis. Control cells treated with EGF were set to 100% maximum response. […] With these parameters, the IC50's for each compound in each cell line was calculated using non-linear curve fitting analysis.

H3255 (EGFR L858R) = H3255 (EGFR L858R) (Homo sapiens, UniProt P00533, L858R); assay: EGFR target modulation in H3255 cell line (phospho-EGFR Y1173 ELISA); assay type: cell-based
Chain of H3255 (EGFR L858R) (P00533 25-1210 L858R): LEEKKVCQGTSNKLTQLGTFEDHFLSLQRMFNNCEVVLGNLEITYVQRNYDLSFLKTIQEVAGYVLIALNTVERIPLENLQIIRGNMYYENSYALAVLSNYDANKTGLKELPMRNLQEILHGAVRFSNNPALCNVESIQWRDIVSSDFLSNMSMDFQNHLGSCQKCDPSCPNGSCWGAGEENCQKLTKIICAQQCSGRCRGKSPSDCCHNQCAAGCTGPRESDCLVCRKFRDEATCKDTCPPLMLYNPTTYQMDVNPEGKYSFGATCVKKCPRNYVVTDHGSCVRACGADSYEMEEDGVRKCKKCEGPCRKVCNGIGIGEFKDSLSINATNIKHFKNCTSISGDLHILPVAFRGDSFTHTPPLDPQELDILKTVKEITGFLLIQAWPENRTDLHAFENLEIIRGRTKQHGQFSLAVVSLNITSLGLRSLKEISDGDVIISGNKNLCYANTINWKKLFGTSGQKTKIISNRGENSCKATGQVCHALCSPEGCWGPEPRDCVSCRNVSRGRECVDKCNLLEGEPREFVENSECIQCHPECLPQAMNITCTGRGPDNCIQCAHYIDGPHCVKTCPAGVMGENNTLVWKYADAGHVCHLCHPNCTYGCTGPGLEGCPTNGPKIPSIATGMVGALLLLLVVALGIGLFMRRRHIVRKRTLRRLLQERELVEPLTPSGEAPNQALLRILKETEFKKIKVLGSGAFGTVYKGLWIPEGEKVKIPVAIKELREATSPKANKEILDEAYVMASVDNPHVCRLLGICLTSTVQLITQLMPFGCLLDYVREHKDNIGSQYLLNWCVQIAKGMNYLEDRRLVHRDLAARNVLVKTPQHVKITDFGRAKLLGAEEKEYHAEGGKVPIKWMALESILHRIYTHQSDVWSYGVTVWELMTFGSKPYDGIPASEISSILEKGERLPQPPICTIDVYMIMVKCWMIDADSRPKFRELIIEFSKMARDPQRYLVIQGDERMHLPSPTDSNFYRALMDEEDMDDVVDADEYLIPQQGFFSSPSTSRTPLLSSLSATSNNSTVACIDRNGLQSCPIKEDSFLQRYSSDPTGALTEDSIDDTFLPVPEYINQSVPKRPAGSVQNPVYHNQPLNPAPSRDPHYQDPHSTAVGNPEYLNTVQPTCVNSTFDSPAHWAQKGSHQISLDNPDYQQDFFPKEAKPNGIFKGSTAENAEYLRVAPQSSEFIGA
Procedure, shortened: (§1)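 pY1173 was measured by sandwich ELISA with anti-EGFR capture and chemiluminescent read-out. Before lysis, each cell line (HCC827, H1975, H3255) was treated with compound for 3 hours. IC50 derived by non-linear fit, normalised to EGF-stimulated controls as maximum.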

HEKn (EGFR WT) = HEKn (EGFR WT) (Homo sapiens, UniProt P00533); assay: EGFR target modulation in HEKn (EGFR-WT) cell line (phospho-EGFR Y1173 ELISA); assay type: cell-based; settings: value outside parentheses
Procedure, shortened: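 Primary neonatal human keratinocytes (EGFR WT) were exposed to serially diluted compounds for 3 h, then lysed on ice. Phospho-EGFR Y1173 was measured by chemiluminescent sandwich ELISA using anti-EGFR capture.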

[1] = target: human EGFR WT (NIH/3T3 cells, EGF-induced) (Homo sapiens, UniProt P00533); assay: EGFR target modulation in engineered NIH/3T3 cell lines (phospho-EGFR Y1068 AlphaLISA), EGFR WT; assay type: cell-based; settings: engineered NIH/3T3 cells, read-out: NIH3T3 IC50 (μM) EGFR (WT)
Chain of human EGFR WT (NIH/3T3 cells, EGF-induced) (P00533 25-1210): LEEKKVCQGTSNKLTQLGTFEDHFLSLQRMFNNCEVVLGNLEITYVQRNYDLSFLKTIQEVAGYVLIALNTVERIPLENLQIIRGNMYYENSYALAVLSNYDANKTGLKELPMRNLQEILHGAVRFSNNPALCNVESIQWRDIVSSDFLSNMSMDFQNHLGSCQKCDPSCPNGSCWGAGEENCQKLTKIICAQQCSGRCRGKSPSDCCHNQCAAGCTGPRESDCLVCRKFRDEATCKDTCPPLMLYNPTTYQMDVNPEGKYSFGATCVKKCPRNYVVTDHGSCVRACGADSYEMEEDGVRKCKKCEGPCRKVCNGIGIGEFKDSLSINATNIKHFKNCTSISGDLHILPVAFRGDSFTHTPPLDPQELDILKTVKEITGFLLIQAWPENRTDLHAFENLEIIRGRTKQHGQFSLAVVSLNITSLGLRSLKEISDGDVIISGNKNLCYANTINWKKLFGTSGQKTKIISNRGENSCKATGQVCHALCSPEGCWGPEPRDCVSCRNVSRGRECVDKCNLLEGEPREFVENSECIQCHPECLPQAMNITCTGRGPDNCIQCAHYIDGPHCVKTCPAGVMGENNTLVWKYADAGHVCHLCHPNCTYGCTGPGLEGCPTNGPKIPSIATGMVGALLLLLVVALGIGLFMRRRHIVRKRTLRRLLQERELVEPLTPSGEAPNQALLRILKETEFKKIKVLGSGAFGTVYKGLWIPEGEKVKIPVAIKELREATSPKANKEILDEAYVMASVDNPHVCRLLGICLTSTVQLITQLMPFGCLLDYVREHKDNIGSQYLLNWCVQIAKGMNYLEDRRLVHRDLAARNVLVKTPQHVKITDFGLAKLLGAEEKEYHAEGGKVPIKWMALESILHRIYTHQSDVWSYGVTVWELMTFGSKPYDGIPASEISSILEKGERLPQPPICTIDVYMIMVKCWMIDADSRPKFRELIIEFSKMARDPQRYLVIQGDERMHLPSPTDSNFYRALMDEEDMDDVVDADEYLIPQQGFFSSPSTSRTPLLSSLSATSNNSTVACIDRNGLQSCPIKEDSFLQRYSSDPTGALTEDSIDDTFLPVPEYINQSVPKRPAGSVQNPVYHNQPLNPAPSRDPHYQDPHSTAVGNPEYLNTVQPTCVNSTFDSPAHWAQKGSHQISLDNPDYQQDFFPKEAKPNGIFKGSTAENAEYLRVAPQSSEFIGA
Procedure, shortened: (§2)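 Engineered NIH/3T3 cells expressing EGFR variants treated 3 h at 37 °C with 12-point 1:3 compound series (top stock 10 μM); only WT cells stimulated with 50 ng/ml EGF for 5 min before lysis. Phospho-Y1068 measured by AlphaLISA with total-EGFR antibody; IC50 from non-linear fitting.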

[2] = target: human EGFR L858R/T790M (NIH/3T3 cells) (Homo sapiens, UniProt P00533, L858R/T790M); assay: EGFR target modulation in engineered NIH/3T3 cell lines (phospho-EGFR Y1068 AlphaLISA), EGFR L858R/T790M; assay type: cell-based; settings: engineered NIH/3T3 cells, read-out: NIH3T3 IC50 (μM) EGFR (L858R/T790M)
Procedure, shortened: as §2

EGFR(L858R/T790M) = target: T1, EGFR(L858R/T790M) (Homo sapiens, UniProt P00533, L858R/T790M); assay: EGFR biochemical assay (HTRF), IC50 determinations
T1 construct: purchased from Carna (GST-a.a. 669-1210)
T1 sequence (P00533 669-1210 T790M/L858R): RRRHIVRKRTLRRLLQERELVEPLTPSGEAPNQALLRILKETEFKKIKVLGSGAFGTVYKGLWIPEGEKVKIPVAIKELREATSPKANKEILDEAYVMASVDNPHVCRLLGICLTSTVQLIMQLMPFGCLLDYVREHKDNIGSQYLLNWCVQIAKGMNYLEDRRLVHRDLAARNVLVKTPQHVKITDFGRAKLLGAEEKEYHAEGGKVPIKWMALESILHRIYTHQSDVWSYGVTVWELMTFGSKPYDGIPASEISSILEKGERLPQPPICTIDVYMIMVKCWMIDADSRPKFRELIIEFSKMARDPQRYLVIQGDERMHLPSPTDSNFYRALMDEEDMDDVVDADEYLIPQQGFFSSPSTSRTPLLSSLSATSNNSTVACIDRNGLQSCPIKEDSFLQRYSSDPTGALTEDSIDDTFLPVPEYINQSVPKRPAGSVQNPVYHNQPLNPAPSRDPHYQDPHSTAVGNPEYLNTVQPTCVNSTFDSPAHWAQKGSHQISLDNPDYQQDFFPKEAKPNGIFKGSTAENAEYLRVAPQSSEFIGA
Procedure, shortened: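 HTRF kinase reaction with biotin-TK peptide at room temperature, quenched with EDTA at 60 min and detected with PT66K/SAXL after 1 h. Without preincubation, enzyme starts the reaction with compound, ATP and peptide present. With preincubation, compound, enzyme and peptide sit at room temperature for a set time before ATP is added.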

[3] = target: human EGFR L858R (NIH/3T3 cells) (Homo sapiens, UniProt P00533, L858R); assay: EGFR target modulation in engineered NIH/3T3 cell lines (phospho-EGFR Y1068 AlphaLISA), EGFR L858R; assay type: cell-based; settings: engineered NIH/3T3 cells, read-out: NIH3T3 IC50 (μM) EGFR (L858R)
Chain of human EGFR L858R (NIH/3T3 cells) (P00533 25-1210 L858R): as the sequence (P00533 25-1210 L858R) above
Procedure, shortened: as §2

H1975 (EGFR L858/T790M) = H1975 (EGFR L858/T790M) (Homo sapiens, UniProt P00533, L858R/T790M); assay: EGFR target modulation in H1975 cell line (phospho-EGFR Y1173 ELISA); assay type: cell-based
Procedure, shortened: as §1

[4] = EGFR (L858R/T790M) with 90 min pre-incubation, read-out: IC50 (μM) Column B
[5] = EGFR (L858R/T790M) with no pre-incubation, read-out: IC50 (μM) Column A

IC50 (HCC827 (Del E746-A750)) [nM] | IC50 (H3255 (EGFR L858R)) [nM] | IC50 (HEKn (EGFR WT)) [nM] | IC50 [1] [µM] | IC50 [2] [µM] | IC50 (EGFR(L858R/T790M); [4]) [µM] | IC50 (EGFR(L858R/T790M); [5]) [µM] | IC50 [3] [µM] | IC50 (H1975 (EGFR L858/T790M)) [nM] | SMILES
2 | 12 | 450 | 0.152 | 0.004 | < 0.001 | 0.007 | 0.004 | 8 | Cc1cc(C(=O)Nc2nc3cccc(Cl)c3n2[C@@H]2CCCCN(C(=O)/C=C/CN3CCCC3)C2)ccn1 [Example 1, (R,E)-N-(7-chloro-1-(1-(4-(pyrrolidin-1-yl)but-2-enoyl)azepan-3-yl)-1H-benzo[d]imidazol-2-yl)-2-methylisonicotinamide]
< 1 | 15 | 910 | 0.183 | 0.011 | < 0.001 | 0.01 | 0.008 | 10 | Cc1cc(C(=O)Nc2nc3cccc(Cl)c3n2[C@@H]2CCCCN(C(=O)/C=C/CN3CC(F)C3)C2)ccn1 [Example 2, (R,E)-N-(7-chloro-1-(1-(4-(3-fluoroazetidin-1-yl)but-2-enoyl)azepan-3-yl)-1H-benzo[d]imidazol-2-yl)-2-methylisonicotinamide]
108 | 320 | 6400 | > 7.6 | 0.174 | 0.011 | 0.156 | 0.157 | 249 | Cc1cc(C(=O)Nc2nc3cccc(Cl)c3n2[C@@H]2CCCCN(C(=O)/C=C/CN3CCC(F)(F)C3)C2)ccn1 [Example 3-3]
< 1 | 7 | 320 | 0.058 | 0.005 | < 0.001 | 0.005 | 0.003 | 6 | CO[C@@H]1CCN(C/C=C/C(=O)N2CCCC[C@@H](n3c(NC(=O)c4ccnc(C)c4)nc4cccc(Cl)c43)C2)C1 [Example 3-4]
< 1 | 12 | 580 | 0.259 | 0.006 | < 0.001 | 0.007 | 0.006 | 8 | CO[C@H]1CCN(C/C=C/C(=O)N2CCCC[C@@H](n3c(NC(=O)c4ccnc(C)c4)nc4cccc(Cl)c43)C2)C1 [Example 3-5]
18 | 22 | 1250 | 0.114 | 0.032 | < 0.001 | 0.01 | 0.018 | 25 | Cc1cc(C(=O)Nc2nc3cccc(Cl)c3n2[C@@H]2CCCCN(C(=O)/C=C/CN3CC[C@@H](O)C3)C2)ccn1 [Example 3-6]
40 | 90 | 4500 | 7.3 | 0.148 | 0.005 | 0.084 | 0.111 | 86 | Cc1cc(C(=O)Nc2nc3cccc(Cl)c3n2[C@@H]2CCCCN(C(=O)/C=C/CN3CC(F)(F)C3)C2)ccn1 [Example 3-15]
7 | 34 | 1520 | 0.34 | 0.002 | < 0.001 | 0.01 | 0.004 | 16 | Cc1cc(C(=O)Nc2nc3cccc(Cl)c3n2[C@@H]2CCCCN(C(=O)/C=C/CN(C)C)C2)cc(C)n1 [Example 6, (R,E)-N-(7-chloro-1-(1-(4-(dimethylamino)but-2-enoyl)azepan-3-yl)-1H-benzo[d]imidazol-2-yl)-2,6-dimethylisonicotinamide]
14 | 33 | 730 | > 10 | 0.011 | < 0.001 | 0.012 | 0.081 | 5 | C=CC(=O)N1CCCCC(n2c(NC(=O)c3cccc(C(F)(F)F)c3)nc3cc(C)ccc32)C1 (stereo not shown) [Example 17-1]
30 | 147 | > 10000 | 4.4 | 0.008 | 0.003 | 0.064 | 0.052 | 10 | C=CC(=O)N1CCCC[C@@H](n2c(NC(=O)c3cccc(C(F)(F)F)c3)nc3cccc(C(F)(F)F)c32)C1 [Example 17-12]
207 | 243 | > 10000 | > 10 | 0.012 | – | – | 0.149 | 27 | C=CC(=O)N1CCC[C@@H](n2c(NC(=O)c3cccc(C(F)(F)F)c3)nc3cc(C)ccc32)C1 [Example 17-105]
< 1 | 2 | 128 | – | – | < 0.001 | 0.001 | – | < 1 | C=CC(=O)N1CCCC[C@@H](n2c(NC(=O)c3cc(C)nc(C)c3)nc3cc(CN4CC[C@H](OC)C4)cc(C)c32)C1 [Example 17-156]
2 | 7 | 308 | – | – | < 0.001 | 0.003 | – | 2 | C=CC(=O)N1CCCC[C@@H](n2c(NC(=O)c3cc(C)nc(C)c3)nc3cc(CN4CC[C@@H](OC)C4)cc(C)c32)C1 [Example 17-157]
23 | 145 | 4600 | – | – | 0.004 | 0.054 | – | 38 | C/C=C/C(=O)N1CCCC[C@@H](n2c(NC(=O)c3cc(C)nc(C)c3)nc3cc(CN4CC[C@H](OC)C4)cc(C)c32)C1 [Example 17-162]
11 | 51 | 1260 | – | – | 0.005 | 0.07 | – | 43 | C/C=C/C(=O)N1CCCC[C@@H](n2c(NC(=O)c3ccnc(C)c3)nc3cc(CN4CC[C@@H](OC)C4)cc(C)c32)C1 [Example 17-163]
9 | 73 | 2270 | – | – | 0.005 | 0.055 | – | 58 | C/C=C/C(=O)N1CCCC[C@@H](n2c(NC(=O)c3ccnc(C)c3)nc3cc(CN4CCCC4)cc(C)c32)C1 [Example 17-164]
31 | 50 | 4500 | – | – | 0.004 | 0.054 | – | 39 | C/C=C/C(=O)N1CCCC[C@@H](n2c(NC(=O)c3cc(C)nc(C)c3)nc3cc(CN4CC[C@H](F)C4)cc(C)c32)C1 [Example 17-165]
4 | 20 | 870 | – | – | < 0.001 | 0.018 | – | 14 | COc1cccc2nc(NC(=O)c3ccnc(C)c3)n([C@@H]3CCCCN(C(=O)/C=C/CN(C)C)C3)c12 [Example 17-176]
38 | 106 | 4200 | – | – | 0.006 | 0.097 | – | 117 | COc1cc2nc(NC(=O)c3ccnc(C)c3)n([C@@H]3CCCCN(C(=O)/C=C/CN(C)C)C3)c2cc1Cl [Example 17-178]
